Laboratory results: the NIST ThermoML archive (doi:10.1021/je900366m)
± gives the expanded uncertainty stated by the source.

Columns and labels:
[1] = refractive index (Na D-line) (dimensionless); conditions: 293.1 K; 101.33 kPa; Liquid; Standard Abbe refractometry
[2] = 298.15 K; 101.33 kPa; Liquid; Pycnometric method

`CC=C(C)CCCC(C)(C)O` [6-octen-2-ol, 2,6-dimethyl-] showed a refractive index [1] of 1.4408 ± 0.0004 and a mass density [2] of 831.8 ± 0.3 kg/m3.
`C1COCCO1` [1,4-dioxane] showed a refractive index [1] of 1.422 ± 0.0004 and a mass density [2] of 1025.9 ± 0.4 kg/m3.
